Measurements as given in patent US20230399341A1, “7-PHENYL SUBSTITUTED 2-AMINOQUINAZOLINE INHIBITORS OF HPK1” (MERCK SHARP & DOHME LLC, priority 2020, published 2023).

Target: T1, Human HPK1, catalytic domain (Homo sapiens, UniProt Q92918)
T1 sequence (Q92918 1-346): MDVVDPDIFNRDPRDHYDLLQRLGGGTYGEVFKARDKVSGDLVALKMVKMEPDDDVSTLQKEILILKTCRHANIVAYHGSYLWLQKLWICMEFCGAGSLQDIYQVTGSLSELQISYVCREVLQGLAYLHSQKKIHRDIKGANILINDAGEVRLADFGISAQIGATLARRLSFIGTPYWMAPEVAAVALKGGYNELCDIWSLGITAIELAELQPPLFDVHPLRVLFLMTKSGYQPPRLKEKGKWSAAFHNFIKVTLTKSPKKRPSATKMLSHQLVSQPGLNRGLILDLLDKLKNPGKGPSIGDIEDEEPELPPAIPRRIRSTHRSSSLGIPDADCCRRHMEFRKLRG
Experiment: HPK1-SLP76 TR-FRET Assay
Assay type: biochemical
Settings: 75 pM HPK1, ATP 10 uM, SLP76 10 nM, 30 min pre-incubation, 60 min reaction

Compound | IC50 [nM]
COc1cc2c(cc1Nc1ncc3ccc(-c4cccc(O)c4)cc3n1)CNCC2 [Compound 1-59, 3-{2-[(6-methoxy-1,2,3,4-tetrahydroisoquinolin-7-yl)amino]quinazolin-7-yl}phenol] | 36.2
COc1cc2c(cc1Nc1ncc3ccc(-c4cccc(CO)c4)cc3n1)CNCC2 [Compound 1-60, (3-{2-[(6-methoxy-1,2,3,4-tetrahydroisoquinolin-7-yl)amino]quinazolin-7-yl}phenyl)methanol] | 20.5
COc1cc2c(cc1Nc1ncc3ccc(-c4cc(C#N)ccc4OC)cc3n1)CNCC2 [Compound 1-63, 4-methoxy-3-{2-[(6-methoxy-1,2,3,4-tetrahydroisoquinolin-7-yl)amino]quinazolin-7-yl}benzonitrile] | 45.7
COc1cc2c(cc1Nc1ncc3ccc(-c4cccc(C(C)=O)c4)cc3n1)CNCC2 [Compound 1-66, 1-(3-{2-[(6-methoxy-1,2,3,4-tetrahydroisoquinolin-7-yl)amino]quinazolin-7-yl}phenyl)ethan-1-one] | 130
COc1cc2c(cc1Nc1ncc3ccc(-c4ccc5c(c4)C(=O)N(CC4CC4)C5)cc3n1)CNCC2 [Compound 1-68, 2-(cyclopropylmethyl)-6-{2-[(6-methoxy-1,2,3,4-tetrahydroisoquinolin-7-yl)amino]quinazolin-7-yl}-2,3-dihydro-1H-isoindol-1-one] | 161
COc1cc2c(cc1Nc1ncc3ccc(-c4cccc(CN5CCCCC5)c4)cc3n1)CNCC2 [Compound 1-69, N-(6-methoxy-1,2,3,4-tetrahydroisoquinolin-7-yl)-7-{3-[(piperidin-1-yl)methyl]phenyl}quinazolin-2-amine] | 215
COc1cc2c(cc1Nc1ncc3ccc(-c4ccc5c(c4)OCCO5)cc3n1)CNCC2 [Compound 1-70, 7-(2,3-dihydro-1,4-benzodioxan-6-yl)-N-(6-methoxy-1,2,3,4-tetrahydroisoquinolin-7-yl)quinazolin-2-amine] | 140
COc1cc2c(cc1Nc1ncc3ccc(-c4ccc5c(c4)CCO5)cc3n1)CNCC2 [Compound 1-72, 7-(2,3-dihydro-1-benzofuran-5-yl)-N-(6-methoxy-1,2,3,4-tetrahydroisoquinolin-7-yl)quinazolin-2-amine] | 53.4
COc1cc2c(cc1Nc1ncc3ccc(-c4cccc5nc(N)[nH]c45)cc3n1)CNCC2 [Compound 1-73] | 88.5
COc1cc2c(cc1Nc1ncc3ccc(-c4ccc5c(c4)CCCO5)cc3n1)CNCC2 [Compound 1-75, 7-(3,4-dihydro-2H-1-benzopyran-6-yl)-N-(6-methoxy-1,2,3,4-tetrahydroisoquinolin-7-yl)quinazolin-2-amine] | 91.6
COc1cc2c(cc1Nc1ncc3ccc(-c4ccc5c(c4)COCC5)cc3n1)CNCC2 [Compound 1-76, 7-(3,4-dihydro-1H-2-benzopyran-7-yl)-N-(6-methoxy-1,2,3,4-tetrahydroisoquinolin-7-yl)quinazolin-2-amine] | 218
COc1cc2c(cc1Nc1ncc3ccc(-c4cccc(S(=O)(=O)N5CCOCC5)c4)cc3n1)CNCC2 [Compound 1-77, N-(6-methoxy-1,2,3,4-tetrahydroisoquinolin-7-yl)-7-{3-[(morpholin-4-yl)sulfonyl]phenyl}quinazo-lin-2-amine] | 24.7
COc1cc2c(cc1Nc1ncc3ccc(-c4cccc(C(=O)NCCN5CCCC5)c4)cc3n1)CNCC2 [Compound 1-83, 3-{2-[(6-methoxy-1,2,3,4-tetrahydroisoquinolin-7-yl)amino]quinazolin-7-yl}-N-[2-(pyrrolidin-1-yl)ethyl]benzamide] | 222
COc1cc2c(cc1Nc1ncc3ccc(-c4ccc5c(c4)CCC(=O)N5)cc3n1)CNCC2 [Compound 1-88, 6-{2-[(6-methoxy-1,2,3,4-tetrahydroisoquinolin-7-yl)amino]quinazolin-7-yl}-3,4-dihydroquinolin-2(1H)-one] | 96.9

The remaining compounds from weak to strong by IC50, led by results:

IC50 [nM] | Compound
462 | COc1cc2c(cc1Nc1ncc3ccc(-c4cc(NC(C)=O)ccc4C)cc3n1)CNCC2 [Compound 1-85, N-(3-{2-[(6-methoxy-1,2,3,4-tetrahydroisoquinolin-7-yl)amino]quinazolin-7-yl}-4-methylphenyl)acetamide]
353 | COc1cc2c(cc1Nc1ncc3ccc(-c4cc(S(=O)(=O)N5CCCC5)ccc4C)cc3n1)CNCC2 [Compound 1-78, N-(6-methoxy-1,2,3,4-tetrahydroisoquinolin-7-yl)-7-{2-methyl-5-[(pyrrolidin-1-yl)sulfonyl]phenyl}quinazo-lin-2-amine]
204 | COc1cc2c(cc1Nc1ncc3ccc(-c4cccc(-c5cn[nH]c5)c4)cc3n1)CNCC2 [Compound 1-56, N-(6-methoxy-1,2,3,4-tetrahydroisoquinolin-7-yl)-7-[3-(1H-pyrazol-4-yl)phenyl]quinazolin-2-amine]
192 | COc1cc2c(cc1Nc1ncc3ccc(-c4ccc(S(=O)(=O)N5CCCC5)cc4)cc3n1)CNCC2 [Compound 1-81, N-(6-methoxy-1,2,3,4-tetrahydroisoquinolin-7-yl)-7-{4-[(pyrrolidin-1-yl)sulfonyl]phenyl}quinazo-lin-2-amine]
156 | COc1cc2c(cc1Nc1ncc3ccc(-c4cccc(C(C)(C)N)c4)cc3n1)CNCC2 [Compound 1-89, 7-[3-(2-aminopropan-2-yl)phenyl]-N-(6-methoxy-1,2,3,4-tetrahydroisoquinolin-7-yl)quinazolin-2-amine]
148 | COc1cc2c(cc1Nc1ncc3ccc(-c4cc(S(=O)(=O)N(C)C)ccc4C)cc3n1)CNCC2 [Compound 1-79, 3-{2-[(6-methoxy-1,2,3,4-tetrahydroisoquinolin-7-yl)amino]quinazolin-7-yl}-N,N,4-trimethylbenzene-1-sulfonamide]
143 | COc1cc2c(cc1Nc1ncc3ccc(-c4cc(C5(CO)CC5)ccc4OC)cc3n1)CNCC2 [Compound 1-74, [1-(4-methoxy-3-{2-[(6-methoxy-1,2,3,4-tetrahydroisoquinolin-7-yl)amino]quinazolin-7-yl}phenyl)cyclo-propyl]methanol]
138 | COc1cc2c(cc1Nc1ncc3ccc(-c4ccc5c(c4)OCO5)cc3n1)CNCC2 [Compound 1-71, 7-(2H-1,3-benzodioxol-5-yl)-N-(6-methoxy-1,2,3,4-tetrahydroisoquinolin-7-yl)quinazolin-2-amine]
120 | COc1cc2c(cc1Nc1ncc3ccc(-c4cccc(C#N)c4)cc3n1)CNCC2 [Compound 1-65, 3-{2-[(6-methoxy-1,2,3,4-tetrahydroisoquinolin-7-yl)amino]quinazolin-7-yl}benzonitrile]
114 | COc1cc2c(cc1Nc1ncc3ccc(-c4cc(N)cc(C#N)c4)cc3n1)CNCC2 [Compound 1-62, 3-amino-5-{2-[(6-methoxy-1,2,3,4-tetrahydroisoquinolin-7-yl)amino]quinazolin-7-yl}benzonitrile]
82 | COc1cc2c(cc1Nc1ncc3ccc(-c4ccc(CC#N)cc4)cc3n1)CNCC2 [Compound 1-64, (4-{2-[(6-methoxy-1,2,3,4-tetrahydroisoquinolin-7-yl)amino]quinazolin-7-yl}phenyl)acetonitrile]
79.2 | COc1cc2c(cc1Nc1ncc3ccc(-c4ccc(CN(C)C)cc4)cc3n1)CNCC2 [Compound 1-57, 7-{4-[(dimethylamino)methyl]phe-nyl}-N-(6-methoxy-1,2,3,4-tetrahydroisoquinolin-7-yl)quinazolin-2-amine]
76.2 | COc1cc2c(cc1Nc1ncc3ccc(-c4cccc(N)c4)cc3n1)CNCC2 [Compound 1-58, 7-(3-aminophenyl)-N-(6-methoxy-1,2,3,4-tetrahydroisoquinolin-7-yl)quinazolin-2-amine]
53.7 | CCNS(=O)(=O)c1cccc(-c2ccc3cnc(Nc4cc5c(cc4OC)CCNC5)nc3c2)c1 [Compound 1-84, N-ethyl-3-{2-[(6-methoxy-1,2,3,4-tetrahydroisoquinolin-7-yl)amino]quinazolin-7-yl}benzene-1-sulfonamide]
49.2 | COc1cc2c(cc1Nc1ncc3ccc(-c4ccc5c(c4)CCN5)cc3n1)CNCC2 [Compound 1-87, 7-(2,3-dihydro-1H-indol-5-yl)-N-(6-methoxy-1,2,3,4-tetrahydroisoquinolin-7-yl)quinazolin-2-amine]
44.1 | COc1cc2c(cc1Nc1ncc3ccc(-c4cccc(C(=O)N5CCCC5)c4)cc3n1)CNCC2 [Compound 1-86, (3-{2-[(6-methoxy-1,2,3,4-tetrahydroisoquinolin-7-yl)amino]quinazolin-7-yl}phenyl)(pyrrolidin-1-yl)methanone]
33.9 | COc1cc2c(cc1Nc1ncc3ccc(-c4cccc(C(=O)NC5CC5)c4)cc3n1)CNCC2 [Compound 1-67, N-cyclopropyl-3-{2-[(6-methoxy-1,2,3,4-tetrahydroisoquinolin-7-yl)amino]quinazolin-7-yl}benzamide]
23.9 | CCN(CC)S(=O)(=O)c1cccc(-c2ccc3cnc(Nc4cc5c(cc4OC)CCNC5)nc3c2)c1 [Compound 1-80, N,N-diethyl-3-{2-[(6-methoxy-1,2,3,4-tetrahydroisoquinolin-7-yl)amino]quinazolin-7-yl}benzene-1-sulfonamide]
15.2 | COc1cc2c(cc1Nc1ncc3ccc(-c4cccc(S(=O)(=O)N5CCCCC5)c4)cc3n1)CNCC2 [Compound 1-82, N-(6-methoxy-1,2,3,4-tetrahydroisoquinolin-7-yl)-7-{3-[(piperidin-1-yl)sulfonyl]phenyl}quinazo-line-2-amine]
13.9 | COc1cc2c(cc1Nc1ncc3ccc(-c4cccc(CN)c4)cc3n1)CNCC2 [Compound 1-61, 7-[3-(aminomethyl)phenyl]-N-(6-methoxy-1,2,3,4-tetrahydroisoquinolin-7-yl)quinazolin-2-amine]
